Test: Solubility of ionic liquid in 100 g of ink or treating solution
Assay type: physicochemical
Conditions: about 23° C., left 1 day
Method: Solubility (the amount of the ionic liquid that can be solved in 100 g of the ink) is defined by mixing the ink and the ionic liquid in predetermined amounts and leaving the resultant mixture for 1 day while keeping it at a temperature of about 23° C. The amount of ionic liquid that has separated from the ink 1 day after mixing is determined as the amount of ionic liquid exceeding the solubility of the ionic liquid in the ink.

SMILES	Solubility (g) of ionic liquid in 100 g of ink (ink A)	Solubility (g) ionic liquid in 100 g of treating solution (treating solution A)	Solubility (g) of ionic liquid in 100 g of ink (ink B)
CC[N+](C)(CC)CCOC.O=S(=O)([N-]S(=O)(=O)C(F)(F)F)C(F)(F)F [Example 1-2, N-diethyl-3-methyl-N-(2-methoxyethyl)ammonium bis(trifluoromethanesulfonyl)imide]	0.1 g or less	0.1 g or less	–
CC[N+](C)(CC)CCOC.F[B-](F)(F)F [Example 1-4, N-diethyl-3-methyl-N-(2-methoxyethyl)tetrafluoroborate]	–	–	less than 5 g
